From patent US11572369B2, “Bicyclic pyridine compositions and methods of using the same for cancer therapy” (UNIVERSITY OF SOUTH CAROLINA, priority 2019, dated 2023)

Columns and labels:
Assay in all cases: KINOMEscan
Format in all cases: binding
Details in all cases: 2000 nM
ACVR2B = target: T1, ACVR2B (Homo sapiens, UniProt Q13705)
T1 construct: purchased DiscoveRx (KINOMEscan scanMAX panel, service)

ADCK3 = target: T2, ADCK3 (Homo sapiens, UniProt Q8NI60)
T2 construct: purchased DiscoveRx (KINOMEscan scanMAX panel, service)

CSNK1A1 = target: T3, CSNK1A1 (Homo sapiens, UniProt P48729)
T3 construct: DNA label (qPCR read-out); purchased DiscoverX (assay service)

DMPK = target: T4, DMPK (Homo sapiens, UniProt Q09013)
T4 construct: DNA label (qPCR read-out); purchased KINOMEscan (DiscoveRx) panel

EPHA7 = target: T5, EPHA7 (Homo sapiens, UniProt Q15375)
T5 construct: purchased DiscoveRx (KINOMEscan scanMAX panel)

FLT3-autoinhibited = target: T6, FLT3-autoinhibited (Homo sapiens, UniProt P36888)
T6 construct: purchased KINOMEscan (DiscoveRx)

FRK = target: T7, FRK (Homo sapiens, UniProt P42685)
T7 construct: purchased KINOMEscan (DiscoveRx)

GCN2(Kin.Dom.2, S808G) = target: T8, GCN2(Kin.Dom.2, S808G) (Homo sapiens, UniProt Q9P2K8, S808G)
T8 construct: GCN2(Kin.Dom.2, S808G); purchased KINOMEscan (DiscoveRx)

GRK4 = target: T9, GRK4 (Homo sapiens, UniProt P32298)
T9 construct: DNA label (for qPCR read-out); purchased DiscoveRx (KINOMEscan scanMAX panel, contract assay)

IRAK4 = target: T10, IRAK4 (Homo sapiens, UniProt Q9NWZ3)
T10 construct: DNA label (qPCR read-out); purchased KINOMEscan (DiscoveRx) ScanMAX panel

KIT(D816V) = target: T11, KIT(D816V) (Homo sapiens, UniProt P10721, D816V)
T11 construct: DNA label (for qPCR read-out); purchased DiscoveRx (KINOMEscan scanMAX panel)

MAP4K2 = MAP4K2 (Homo sapiens, UniProt Q12851)
MEK1 = target: T12, MEK1 (Homo sapiens, UniProt Q02750)
T12 construct: purchased DiscoveRx (KINOMEscan scanMAX panel, service)

MEK4 = target: T13, MEK4 (Homo sapiens, UniProt P45985)
T13 construct: purchased DiscoveRx (KINOMEscan scanMAX panel, service)

MKK7 = target: T14, MKK7 (Homo sapiens, UniProt O14733)
T14 construct: DNA label (qPCR read-out); purchased KINOMEscan scanMAX panel (DiscoveRx)

MKNK1 = target: T15, MKNK1 (Homo sapiens, UniProt Q9BUB5)
T15 construct: DNA label (qPCR read-out); purchased KINOMEscan scanMAX panel (DiscoveRx)

MLK3 = target: T16, MLK3 (Homo sapiens, UniProt Q16584)
T16 construct: DNA label (qPCR read-out); purchased KINOMEscan scanMAX panel (DiscoveRx)

NEK7 = target: T17, NEK7 (Homo sapiens, UniProt Q8TDX7)
T17 construct: DNA label (qPCR read-out); purchased KINOMEscan (ScanMAX panel service)

OSR1 = target: T18, OSR1 (Homo sapiens, UniProt O95747)
T18 construct: purchased DiscoverX (KINOMEscan service)

p38-delta = target: T19, p38-delta (Homo sapiens, UniProt O15264)
T19 construct: purchased DiscoverX (KINOMEscan service)

PIK3CA(E542K) = target: T20, PIK3CA(E542K) (Homo sapiens, UniProt P42336, E542K)
T20 construct: DNA label; purchased DiscoveRx (KINOMEscan scanMAX panel)

PIK3CA(H1047Y) = target: T21, PIK3CA(H1047Y) (Homo sapiens, UniProt P42336, H1047Y)
T21 construct: DNA label; purchased DiscoveRx (KINOMEscan scanMAX panel)

PIP5K2B = target: T22, PIP5K2B (Homo sapiens, UniProt P78356)
T22 construct: DNA label (qPCR read-out); purchased KINOMEscan (DiscoveRx) panel

PRKD2 = target: T23, PRKD2 (Homo sapiens, UniProt Q9BZL6)
T23 construct: purchased DiscoveRx (KINOMEscan scanMAX panel)

PRKD3 = target: T24, PRKD3 (Homo sapiens, UniProt O94806)
T24 construct: purchased DiscoveRx (KINOMEscan scanMAX panel)

RET(M918T) = target: T25, RET(M918T) (Homo sapiens, UniProt P07949, M918T)
T25 construct: purchased DiscoveRx (KINOMEscan scanMAX panel)

[1] = target: T26, RSK4(Kin.Dom.1-N-terminal) (Homo sapiens, UniProt Q9UK32)
T26 construct: RSK4(Kin.Dom.1); purchased DiscoveRx (KINOMEscan scanMAX panel)

SGK = target: T27, SGK (Homo sapiens, UniProt O00141)
T27 construct: purchased DiscoveRx (KINOMEscan scanMAX panel)

SGK2 = target: T28, SGK2 (Homo sapiens, UniProt Q9HBY8)
T28 construct: purchased KINOMEscan (DiscoveRx)

TAOK1 = target: T29, TAOK1 (Homo sapiens, UniProt Q7L7X3)
T29 construct: DNA label (for qPCR read-out); purchased DiscoveRx (KINOMEscan scanMAX panel, contract assay)

TRKA = target: T30, TRKA (Homo sapiens, UniProt P04629)
T30 construct: DNA label (qPCR read-out); purchased KINOMEscan (DiscoveRx) ScanMAX panel

TTK = target: T31, TTK (Homo sapiens, UniProt P33981)
T31 construct: DNA label (for qPCR read-out); purchased DiscoveRx (KINOMEscan scanMAX panel)

WEE2 = target: T32, WEE2 (Homo sapiens, UniProt P0C1S8)
T32 construct: purchased KINOMEscan (DiscoveRx) panel service

YANK1 = target: T33, YANK1 (Homo sapiens, UniProt Q8WU08)
T33 construct: purchased KINOMEscan (DiscoveRx) panel service

ZAP70 = ZAP70 (Homo sapiens, UniProt P43403)

T24 sequence (O94806 whole entry): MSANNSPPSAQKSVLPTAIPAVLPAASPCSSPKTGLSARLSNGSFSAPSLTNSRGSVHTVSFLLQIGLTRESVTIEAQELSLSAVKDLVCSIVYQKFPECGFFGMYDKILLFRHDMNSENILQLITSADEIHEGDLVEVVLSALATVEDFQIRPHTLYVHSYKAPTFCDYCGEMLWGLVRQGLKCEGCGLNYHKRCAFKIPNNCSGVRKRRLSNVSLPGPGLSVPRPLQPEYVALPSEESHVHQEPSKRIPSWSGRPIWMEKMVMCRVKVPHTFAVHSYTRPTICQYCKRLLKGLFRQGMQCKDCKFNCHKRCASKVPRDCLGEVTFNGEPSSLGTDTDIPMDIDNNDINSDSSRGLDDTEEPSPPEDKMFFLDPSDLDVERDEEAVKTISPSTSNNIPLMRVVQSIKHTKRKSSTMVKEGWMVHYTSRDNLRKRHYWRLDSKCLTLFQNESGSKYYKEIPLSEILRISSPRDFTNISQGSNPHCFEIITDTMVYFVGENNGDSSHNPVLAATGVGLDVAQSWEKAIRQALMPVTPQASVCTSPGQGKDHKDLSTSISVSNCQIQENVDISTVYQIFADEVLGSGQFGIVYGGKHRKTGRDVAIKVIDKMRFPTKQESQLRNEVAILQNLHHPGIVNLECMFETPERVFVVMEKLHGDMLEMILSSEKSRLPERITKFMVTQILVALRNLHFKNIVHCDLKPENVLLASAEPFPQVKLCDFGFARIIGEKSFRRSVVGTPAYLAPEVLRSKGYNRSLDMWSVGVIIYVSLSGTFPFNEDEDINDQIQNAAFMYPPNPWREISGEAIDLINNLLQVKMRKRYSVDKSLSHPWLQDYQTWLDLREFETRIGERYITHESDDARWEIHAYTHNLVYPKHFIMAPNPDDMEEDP
T32 sequence (P0C1S8 whole entry): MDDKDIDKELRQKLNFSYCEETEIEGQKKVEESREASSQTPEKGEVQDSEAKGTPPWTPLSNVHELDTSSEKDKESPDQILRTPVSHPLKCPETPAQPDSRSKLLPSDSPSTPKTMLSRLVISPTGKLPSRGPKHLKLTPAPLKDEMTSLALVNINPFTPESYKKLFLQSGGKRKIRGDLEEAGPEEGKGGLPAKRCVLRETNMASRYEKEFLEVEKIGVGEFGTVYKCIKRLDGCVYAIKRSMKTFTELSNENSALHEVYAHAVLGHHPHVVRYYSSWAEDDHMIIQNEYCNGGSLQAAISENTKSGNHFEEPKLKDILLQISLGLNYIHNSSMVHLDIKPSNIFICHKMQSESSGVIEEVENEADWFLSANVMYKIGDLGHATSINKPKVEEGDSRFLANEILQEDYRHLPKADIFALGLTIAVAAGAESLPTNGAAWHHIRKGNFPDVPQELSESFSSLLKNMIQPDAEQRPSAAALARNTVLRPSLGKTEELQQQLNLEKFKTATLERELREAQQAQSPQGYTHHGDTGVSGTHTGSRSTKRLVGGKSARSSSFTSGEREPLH
T26 sequence (Q9UK32 73-330 limits assumed): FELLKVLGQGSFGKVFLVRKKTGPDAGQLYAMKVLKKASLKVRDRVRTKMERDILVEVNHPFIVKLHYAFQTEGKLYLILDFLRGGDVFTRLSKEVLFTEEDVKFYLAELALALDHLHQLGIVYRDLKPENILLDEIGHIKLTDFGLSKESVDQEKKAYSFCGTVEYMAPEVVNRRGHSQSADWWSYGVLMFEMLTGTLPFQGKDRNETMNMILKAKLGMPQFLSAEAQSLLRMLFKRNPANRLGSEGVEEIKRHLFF
T6 sequence (P36888 564-993 limits assumed): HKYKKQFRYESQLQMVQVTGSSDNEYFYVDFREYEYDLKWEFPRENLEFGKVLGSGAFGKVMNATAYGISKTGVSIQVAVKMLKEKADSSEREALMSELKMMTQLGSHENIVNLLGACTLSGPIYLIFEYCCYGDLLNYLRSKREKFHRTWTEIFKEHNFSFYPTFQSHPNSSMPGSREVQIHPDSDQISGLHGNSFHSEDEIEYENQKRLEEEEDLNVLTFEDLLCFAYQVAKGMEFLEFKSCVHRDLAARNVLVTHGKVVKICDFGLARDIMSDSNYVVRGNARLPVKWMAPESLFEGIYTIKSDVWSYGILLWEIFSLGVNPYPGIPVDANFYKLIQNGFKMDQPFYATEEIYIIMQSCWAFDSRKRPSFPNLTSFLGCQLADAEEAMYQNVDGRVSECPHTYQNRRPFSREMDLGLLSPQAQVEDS
T23 sequence (Q9BZL6 whole entry): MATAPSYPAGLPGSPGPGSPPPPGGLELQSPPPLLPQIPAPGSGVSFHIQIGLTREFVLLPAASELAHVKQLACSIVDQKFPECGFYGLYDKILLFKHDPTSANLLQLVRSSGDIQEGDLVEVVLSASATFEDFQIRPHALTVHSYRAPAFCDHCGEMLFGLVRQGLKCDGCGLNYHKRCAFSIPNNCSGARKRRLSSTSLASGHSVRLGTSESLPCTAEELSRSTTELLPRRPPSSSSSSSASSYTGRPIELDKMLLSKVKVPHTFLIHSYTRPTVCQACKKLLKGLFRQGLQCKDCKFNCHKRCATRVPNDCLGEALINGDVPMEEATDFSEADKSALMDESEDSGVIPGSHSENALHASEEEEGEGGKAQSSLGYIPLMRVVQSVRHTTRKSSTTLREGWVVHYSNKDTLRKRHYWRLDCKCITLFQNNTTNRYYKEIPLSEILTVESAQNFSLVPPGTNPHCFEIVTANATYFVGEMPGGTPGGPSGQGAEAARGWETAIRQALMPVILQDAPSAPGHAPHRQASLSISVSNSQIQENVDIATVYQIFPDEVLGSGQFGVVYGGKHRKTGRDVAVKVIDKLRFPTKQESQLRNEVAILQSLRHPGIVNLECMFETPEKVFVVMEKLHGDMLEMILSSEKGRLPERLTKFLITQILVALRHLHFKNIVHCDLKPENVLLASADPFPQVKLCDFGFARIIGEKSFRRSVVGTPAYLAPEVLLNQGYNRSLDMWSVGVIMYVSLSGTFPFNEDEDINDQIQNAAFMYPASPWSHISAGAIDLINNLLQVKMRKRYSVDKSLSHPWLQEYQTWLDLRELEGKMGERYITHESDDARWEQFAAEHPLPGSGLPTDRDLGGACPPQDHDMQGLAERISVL
T9 sequence (P32298 whole entry): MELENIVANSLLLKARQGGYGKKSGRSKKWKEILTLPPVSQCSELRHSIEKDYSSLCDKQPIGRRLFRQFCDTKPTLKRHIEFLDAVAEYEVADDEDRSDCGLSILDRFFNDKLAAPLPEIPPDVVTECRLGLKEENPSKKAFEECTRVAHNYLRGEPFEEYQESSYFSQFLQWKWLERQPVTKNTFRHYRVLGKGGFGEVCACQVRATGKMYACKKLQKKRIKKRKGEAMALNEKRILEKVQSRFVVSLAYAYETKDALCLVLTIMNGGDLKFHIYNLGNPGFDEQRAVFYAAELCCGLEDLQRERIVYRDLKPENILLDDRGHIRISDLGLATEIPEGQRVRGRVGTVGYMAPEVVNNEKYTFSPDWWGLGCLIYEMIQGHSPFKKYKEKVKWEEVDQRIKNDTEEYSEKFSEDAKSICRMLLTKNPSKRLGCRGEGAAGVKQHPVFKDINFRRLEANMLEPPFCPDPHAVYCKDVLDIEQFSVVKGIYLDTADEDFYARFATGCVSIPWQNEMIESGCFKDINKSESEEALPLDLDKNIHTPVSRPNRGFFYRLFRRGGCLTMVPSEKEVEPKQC
T18 sequence (O95747 whole entry): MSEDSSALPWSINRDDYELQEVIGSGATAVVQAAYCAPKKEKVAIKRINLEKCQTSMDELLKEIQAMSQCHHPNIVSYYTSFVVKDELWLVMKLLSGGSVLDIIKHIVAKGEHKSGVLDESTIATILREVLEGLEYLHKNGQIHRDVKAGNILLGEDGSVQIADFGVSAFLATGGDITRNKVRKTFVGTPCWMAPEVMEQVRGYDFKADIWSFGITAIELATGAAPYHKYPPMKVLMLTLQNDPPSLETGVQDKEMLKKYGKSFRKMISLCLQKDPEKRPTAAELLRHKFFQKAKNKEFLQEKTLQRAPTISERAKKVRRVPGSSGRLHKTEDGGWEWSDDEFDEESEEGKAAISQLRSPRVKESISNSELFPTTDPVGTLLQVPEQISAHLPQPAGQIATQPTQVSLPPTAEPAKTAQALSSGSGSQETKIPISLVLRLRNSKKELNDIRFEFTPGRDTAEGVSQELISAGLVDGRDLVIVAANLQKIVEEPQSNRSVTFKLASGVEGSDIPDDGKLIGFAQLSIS
T30 sequence (P04629 33-796): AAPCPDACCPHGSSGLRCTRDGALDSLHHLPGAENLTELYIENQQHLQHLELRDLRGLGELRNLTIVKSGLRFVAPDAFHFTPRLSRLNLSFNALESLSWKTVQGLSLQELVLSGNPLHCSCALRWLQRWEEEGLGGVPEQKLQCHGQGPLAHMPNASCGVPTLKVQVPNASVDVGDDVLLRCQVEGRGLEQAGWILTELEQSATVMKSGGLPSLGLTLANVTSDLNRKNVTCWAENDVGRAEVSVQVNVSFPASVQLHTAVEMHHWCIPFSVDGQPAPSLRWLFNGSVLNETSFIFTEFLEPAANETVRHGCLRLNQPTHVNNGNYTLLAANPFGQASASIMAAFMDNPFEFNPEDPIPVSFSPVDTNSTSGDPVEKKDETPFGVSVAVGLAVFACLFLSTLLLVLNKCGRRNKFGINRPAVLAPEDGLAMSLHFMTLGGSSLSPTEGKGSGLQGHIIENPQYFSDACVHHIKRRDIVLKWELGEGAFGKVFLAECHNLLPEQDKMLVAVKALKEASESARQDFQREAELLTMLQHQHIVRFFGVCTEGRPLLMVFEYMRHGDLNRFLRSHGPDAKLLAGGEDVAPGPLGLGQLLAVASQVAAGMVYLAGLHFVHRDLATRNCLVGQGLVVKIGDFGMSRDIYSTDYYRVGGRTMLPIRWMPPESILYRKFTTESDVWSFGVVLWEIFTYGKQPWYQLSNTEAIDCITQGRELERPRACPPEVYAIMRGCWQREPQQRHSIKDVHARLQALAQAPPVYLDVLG

Compound | % Ctrl (ACVR2B) [% Ctrl] | % Ctrl (ADCK3) [% Ctrl] | % Ctrl (CSNK1A1) [% Ctrl] | % Ctrl (DMPK) [% Ctrl] | % Ctrl (EPHA7) [% Ctrl] | % Ctrl (FLT3-autoinhibited) [% Ctrl] | % Ctrl (FRK) [% Ctrl] | % Ctrl (GCN2(Kin.Dom.2, S808G)) [% Ctrl] | % Ctrl (GRK4) [% Ctrl] | % Ctrl (IRAK4) [% Ctrl] | % Ctrl (KIT(D816V)) [% Ctrl] | % Ctrl (MAP4K2) [% Ctrl] | % Ctrl (MEK1) [% Ctrl] | % Ctrl (MEK4) [% Ctrl] | % Ctrl (MKK7) [% Ctrl] | % Ctrl (MKNK1) [% Ctrl] | % Ctrl (MLK3) [% Ctrl] | % Ctrl (NEK7) [% Ctrl] | % Ctrl (OSR1) [% Ctrl] | % Ctrl (p38-delta) [% Ctrl] | further results
[2H]C([2H])([2H])N(C(=O)c1ccc(N2CCCN(c3ccnc4sc(C(N)=O)c(N)c34)CC2)cc1)C([2H])([2H])[2H] [15u_D6, 3-amino-4-(4-(4-(bis(methyl-d3)carbamoyl)phenyl)-1,4-diazepan-1-yl)thieno[2,3-b]pyridine-2-carboxamide] | 86 | 100 | 12 | 97 | 81 | 77 | 97 | 88 | 98 | 78 | 79 | 66 | 83 | 74 | 85 | 79 | 100 | 86 | 88 | 97 | % Ctrl (PIK3CA(E542K)): 74 % Ctrl; % Ctrl (PIK3CA(H1047Y)): 100 % Ctrl; % Ctrl (PIP5K2B): 95 % Ctrl; % Ctrl (PRKD2): 90 % Ctrl; % Ctrl (PRKD3): 100 % Ctrl; % Ctrl (RET(M918T)): 98 % Ctrl; % Ctrl [1]: 80 % Ctrl; % Ctrl (SGK): 83 % Ctrl; % Ctrl (SGK2): 81 % Ctrl; % Ctrl (TAOK1): 73 % Ctrl; % Ctrl (TRKA): 78 % Ctrl; % Ctrl (TTK): 80 % Ctrl; % Ctrl (WEE2): 88 % Ctrl; % Ctrl (YANK1): 97 % Ctrl; % Ctrl (ZAP70): 87 % Ctrl
CN(C)C(=O)c1ccc(N2CCCN(c3ccnc4sc(C(N)=O)c(N)c34)CC2)cc1 [15u, 3-amino-4-(4-(4-(dimethylcarbamoyl)phenyl)-1,4-diazepan-1-yl)thieno[2,3-b]pyridine-2-carboxamide] | 100 | 90 | 33 | 97 | 92 | 72 | 100 | 73 | 62 | 89 | 93 | 84 | 93 | 69 | 100 | 94 | 99 | 100 | 100 | 96 | % Ctrl (PIK3CA(E542K)): 92 % Ctrl; % Ctrl (PIK3CA(H1047Y)): 79 % Ctrl; % Ctrl (PIP5K2B): 92 % Ctrl; % Ctrl (PRKD2): 56 % Ctrl; % Ctrl (PRKD3): 94 % Ctrl; % Ctrl (RET(M918T)): 98 % Ctrl; % Ctrl [1]: 78 % Ctrl; % Ctrl (SGK): 86 % Ctrl; % Ctrl (SGK2): 100 % Ctrl; % Ctrl (TAOK1): 100 % Ctrl; % Ctrl (TRKA): 93 % Ctrl; % Ctrl (TTK): 83 % Ctrl; % Ctrl (WEE2): 97 % Ctrl; % Ctrl (YANK1): 89 % Ctrl; % Ctrl (ZAP70): 95 % Ctrl
